In patent publication US20020052295A1, “Diacyl derivatives of propylene diamine having herbicidal activity” (priority 1999, published 2002):

Legend:
CONAR [1] = test: Post-emergence herbicidal activity on CONAR (field bindweed); type: in vivo, Convolvulus arvensis; conditions: post-emergence spray; lowest tested rate with 80% or greater inhibition; about 14 days after treatment
Description: (§1) All such uses, and the biological activity enabling such uses, are embraced by the term “herbicidal” herein. Tables 15 and 16 summarize results of tests conducted as described below to determine the pre-emergence herbicidal activity, in the form of a GR80 value, of illustrative compounds of this invention. […] Where herbicidal activity was evident but 80% inhibition was not achieved at the highest rate tested (typically 1000 g/ha), an asterisk (*) is shown in the following tables. Herbicidal activity evident in the form of symptoms of phytotoxicity, in the absence of at least 80% inhibition at any rate, is indicated in the tables by “phyto”. A blank cell in the following tables indicates no herbicidal or phytotoxic response at any rate tested.
(§2) In another set of tests, the post-emergence activity of compounds of this invention was evaluated on the cool season species listed above. The following procedure was used.
(§3) A pre-prepared topsoil mixture (described above) was placed in a pot and compacted to a depth of 1.0 to 1.25 cm from the top of the pot. Seeds of each of several monocotyledonous and dicotyledonous annual plant species were placed on top of the soil The seeds were covered with a mixture of 50% topsoil and 50% Rediearth™ in sufficient quantity to level-fill the pots. The pots were then placed on a greenhouse bench and subirrigated as needed until plants growing from the seeds had emerged and reached a suitable growth stage for post-emergence treatment, typically 9 to 14 days after planting.
(§4) A known amount of each test compound dissolved or suspended in an appropriate organic solvent was diluted with a 50:50 mix of acetone and water and applied to the plants by spraying with a standard spray nozzle in a spray volume of 3,100 l/ha at a spray pressure of […] (30 psig). Control plants were not sprayed.
(§5) After treatment the plants were placed in a greenhouse with a 30/21° C. day/night temperature regime and were subsequently watered as needed for growth. Approximately 14 days after treatment, the plants were observed and herbicidal efficacy recorded as percent inhibition by comparison with control plants.

ECHCG [2] = test: Post-emergence herbicidal activity on ECHCG (barnyardgrass); type: in vivo, Echinochloa crus-galli; conditions: post-emergence spray; lowest tested rate with 80% or greater inhibition; about 14 days after treatment
Description: as §1, §2, §3, §4, §5

DIGSA [3] = test: Post-emergence herbicidal activity on DIGSA (large crabgrass); type: in vivo, Digitaria sanguinalis; conditions: post-emergence spray; lowest tested rate with 80% or greater inhibition; about 14 days after treatment
SOLNI [4] = test: Post-emergence herbicidal activity on SOLNI (black nightshade); type: in vivo, Solanum nigrum; conditions: post-emergence spray; lowest tested rate with 80% or greater inhibition; about 14 days after treatment
Description: as §1, §2, §3, §4, §5

DATST [5] = test: Post-emergence herbicidal activity on DATST (jimsonweed); type: in vivo, Datura stramonium; conditions: post-emergence spray; lowest tested rate with 80% or greater inhibition; about 14 days after treatment
Description: as §1, §2, §3, §4, §5

POROL [6] = test: Post-emergence herbicidal activity on POROL (common purslane; table head prints PORAL); type: in vivo, Portulaca oleracea; conditions: post-emergence spray; lowest tested rate with 80% or greater inhibition; about 14 days after treatment
Description: as §1, §2, §3, §4, §5

PANDI [7] = test: Post-emergence herbicidal activity on PANDI (fall panicum); type: in vivo, Panicum dichotomiflorum; conditions: post-emergence spray; lowest tested rate with 80% or greater inhibition; about 14 days after treatment
Description: as §1, §2, §3, §4, §5

BRAPP [8] = test: Post-emergence herbicidal activity on BRAPP (broadleaf signalgrass); type: in vivo, Brachiaria platyphylla; conditions: post-emergence spray; lowest tested rate with 80% or greater inhibition; about 14 days after treatment
Description: as §1, §2, §3, §4, §5

PANMI [9] = test: Post-emergence herbicidal activity on PANMI (wild proso millet); type: in vivo, Panicum miliaceum; conditions: post-emergence spray; lowest tested rate with 80% or greater inhibition; about 14 days after treatment
SORVU [10] = test: Post-emergence herbicidal activity on SORVU (shattercane); type: in vivo, Sorghum vulgare; conditions: post-emergence spray; lowest tested rate with 80% or greater inhibition; about 14 days after treatment
Description: as §1, §2, §3, §4, §5

CIRAR [11] = test: Post-emergence herbicidal activity on CIRAR (canada thistle, seedling); type: in vivo, Cirsium arvense; conditions: post-emergence spray; lowest tested rate with 80% or greater inhibition; about 14 days after treatment
Description: as §1, §2, §3, §4, §5

SORHA [12] = test: Post-emergence herbicidal activity on SORHA (johnsongrass, seedling); type: in vivo, Sorghum halepense; conditions: post-emergence spray; lowest tested rate with 80% or greater inhibition; about 14 days after treatment
Description: as §1, §2, §3, §4, §5

AMARE [13] = test: Post-emergence herbicidal activity on AMARE (redroot pigweed); type: in vivo, Amaranthus retroflexus; conditions: post-emergence spray; lowest tested rate with 80% or greater inhibition; about 14 days after treatment
Description: as §1, §2, §3, §4, §5

CHEAL [14] = test: Post-emergence herbicidal activity on CHEAL (common lambsquarters); type: in vivo, Chenopodium album; conditions: post-emergence spray; lowest tested rate with 80% or greater inhibition; about 14 days after treatment
Description: as §1, §2, §3, §4, §5

ABUTH [15] = test: Post-emergence herbicidal activity on ABUTH (velvetleaf); type: in vivo, Abutilon theophrasti; conditions: post-emergence spray; lowest tested rate with 80% or greater inhibition; about 14 days after treatment
Description: as §1, §2, §3, §4, §5

PANDI [16] = test: Pre-emergence herbicidal activity on PANDI (fall panicum); type: in vivo, Panicum dichotomiflorum; conditions: lowest tested rate giving 80% or greater inhibition, approx. 14 days after planting and treating, greenhouse
How it was run: (§6)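 In this greenhouse test, compound in acetone/water (50:50) was put on the soil surface directly after seeds were sown and covered. Plants received overhead irrigation and were held at 30/21 °C day/night. About 14 days on, inhibition relative to untreated controls gave GR80.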

CONAR [17] = test: Pre-emergence herbicidal activity on CONAR (field bindweed); type: in vivo, Convolvulus arvensis; conditions: lowest tested rate giving 80% or greater inhibition, approx. 14 days after planting and treating, greenhouse
How it was run: as §6

SETFA = test: Pre-emergence herbicidal activity on SETFA (giant foxtail); type: in vivo, Setaria faberi; conditions: lowest tested rate giving 80% or greater inhibition, approx. 14 days after planting and treating, greenhouse
How it was run: as §6

SORVU [18] = test: Pre-emergence herbicidal activity on SORVU (shattercane); type: in vivo, Sorghum vulgare; conditions: lowest tested rate giving 80% or greater inhibition, approx. 14 days after planting and treating, greenhouse
How it was run: as §6

CHEAL [19] = test: Pre-emergence herbicidal activity on CHEAL (common lambsquarters); type: in vivo, Chenopodium album; conditions: lowest tested rate giving 80% or greater inhibition, approx. 14 days after planting and treating, greenhouse
How it was run: as §6

AMARE [20] = test: Pre-emergence herbicidal activity on AMARE (redroot pigweed); type: in vivo, Amaranthus retroflexus; conditions: lowest tested rate giving 80% or greater inhibition, approx. 14 days after planting and treating, greenhouse
How it was run: as §6

SOLNI [21] = test: Pre-emergence herbicidal activity on SOLNI (black nightshade); type: in vivo, Solanum nigrum; conditions: lowest tested rate giving 80% or greater inhibition, approx. 14 days after planting and treating, greenhouse
How it was run: as §6

DATST [22] = test: Pre-emergence herbicidal activity on DATST (jimsonweed); type: in vivo, Datura stramonium; conditions: lowest tested rate giving 80% or greater inhibition, approx. 14 days after planting and treating, greenhouse
How it was run: as §6

ECHCG [23] = test: Pre-emergence herbicidal activity on ECHCG (barnyardgrass); type: in vivo, Echinochloa crus-galli; conditions: lowest tested rate giving 80% or greater inhibition, approx. 14 days after planting and treating, greenhouse
How it was run: as §6

DIGSA [24] = test: Pre-emergence herbicidal activity on DIGSA (large crabgrass); type: in vivo, Digitaria sanguinalis; conditions: lowest tested rate giving 80% or greater inhibition, approx. 14 days after planting and treating, greenhouse
How it was run: as §6

BRAPP [25] = test: Pre-emergence herbicidal activity on BRAPP (broadleaf signalgrass); type: in vivo, Brachiaria platyphylla; conditions: lowest tested rate giving 80% or greater inhibition, approx. 14 days after planting and treating, greenhouse
How it was run: as §6

SORHA [26] = test: Pre-emergence herbicidal activity on SORHA (johnsongrass, seedling); type: in vivo, Sorghum halepense; conditions: lowest tested rate giving 80% or greater inhibition, approx. 14 days after planting and treating, greenhouse
How it was run: as §6

CIRAR [27] = test: Pre-emergence herbicidal activity on CIRAR (canada thistle, seedling); type: in vivo, Cirsium arvense; conditions: lowest tested rate giving 80% or greater inhibition, approx. 14 days after planting and treating, greenhouse
How it was run: as §6

PANMI [28] = test: Pre-emergence herbicidal activity on PANMI (wild proso millet); type: in vivo, Panicum miliaceum; conditions: lowest tested rate giving 80% or greater inhibition, approx. 14 days after planting and treating, greenhouse
How it was run: as §6

POROL [29] = test: Pre-emergence herbicidal activity on POROL (common purslane); type: in vivo, Portulaca oleracea; conditions: lowest tested rate giving 80% or greater inhibition, approx. 14 days after planting and treating, greenhouse
How it was run: as §6

ABUTH [30] = test: Pre-emergence herbicidal activity on ABUTH (velvetleaf); type: in vivo, Abutilon theophrasti; conditions: lowest tested rate giving 80% or greater inhibition, approx. 14 days after planting and treating, greenhouse
How it was run: as §6

O=C(NCC(CCl)NC(=O)c1cccc(C(F)(F)F)c1)c1cccc(C(F)(F)F)c1 (stereo not drawn) [Example 12, N,N′-(3-chloro-1,2-propanediylbis)-3-(trifluoromethyl)benzamide]
Post-emergence activity (GR80) CONAR (CONAR [1]): [empty] | Post-emergence activity (GR80) ECHCG (ECHCG [2]): [empty] | Post-emergence activity (GR80) DIGSA (DIGSA [3]): [empty] | Post-emergence activity (GR80) SOLNI (SOLNI [4]): [empty] | Post-emergence activity (GR80) DATST (DATST [5]): [empty] | Post-emergence activity (GR80) PORAL (POROL [6]): 1000 g/ha | Post-emergence activity (GR80) PANDI (PANDI [7]): [empty] | Post-emergence activity (GR80) BRAPP (BRAPP [8]): [empty] | Post-emergence activity (GR80) PANMI (PANMI [9]): [empty] | Post-emergence activity (GR80) SORVU (SORVU [10]): [empty] | Post-emergence activity (GR80) CIRAR (CIRAR [11]): 1000 g/ha | Post-emergence activity (GR80) SORHA (SORHA [12]): [empty] | Post-emergence activity (GR80) AMARE (AMARE [13]): [empty] | Post-emergence activity (GR80) CHEAL (CHEAL [14]): [empty] | Post-emergence activity (GR80) ABUTH (ABUTH [15]): [empty]

CC(CNC(=O)c1cccc(C(F)(F)F)c1)NC(=O)c1cccc(F)c1F (stereo not drawn) [Example 34]
Post-emergence activity (GR80) CONAR (CONAR [1]): * (Where herbicidal activity was evident but 80% inhibition was not achieved at the highest rate tested (typically 1000 g/ha), an asterisk (*) is shown) | Pre-emergence activity (GR80) on PANDI (PANDI [16]): 125 g/ha | Pre-emergence activity (GR80) on CONAR (CONAR [17]): 750 g/ha | Pre-emergence activity (GR80) on SETFA (SETFA): 250 g/ha | Post-emergence activity (GR80) SOLNI (SOLNI [4]): phyto | Post-emergence activity (GR80) DATST (DATST [5]): 750 g/ha | Pre-emergence activity (GR80) on SORVU (SORVU [18]): phyto | Post-emergence activity (GR80) PORAL (POROL [6]): 250 g/ha | Pre-emergence activity (GR80) on CHEAL (CHEAL [19]): 125 g/ha | Pre-emergence activity (GR80) on AMARE (AMARE [20]): 125 g/ha | Pre-emergence activity (GR80) on SOLNI (SOLNI [21]): 250 g/ha | Post-emergence activity (GR80) CIRAR (CIRAR [11]): 1000 g/ha | Pre-emergence activity (GR80) on DATST (DATST [22]): 250 g/ha | Pre-emergence activity (GR80) on ECHCG (ECHCG [23]): 1000 g/ha | Pre-emergence activity (GR80) on DIGSA (DIGSA [24]): 125 g/ha | Pre-emergence activity (GR80) on BRAPP (BRAPP [25]): 250 g/ha | Pre-emergence activity (GR80) on SORHA (SORHA [26]): 750 g/ha | Post-emergence activity (GR80) AMARE (AMARE [13]): 750 g/ha | Pre-emergence activity (GR80) on CIRAR (CIRAR [27]): 125 g/ha | Pre-emergence activity (GR80) on PANMI (PANMI [28]): 250 g/ha | Pre-emergence activity (GR80) on PORAL (POROL [29]): 125 g/ha | Pre-emergence activity (GR80) on ABUTH (ABUTH [30]): 500 g/ha | Post-emergence activity (GR80) CHEAL (CHEAL [14]): * (Where herbicidal activity was evident but 80% inhibition was not achieved at the highest rate tested (typically 1000 g/ha), an asterisk (*) is shown) | Post-emergence activity (GR80) ABUTH (ABUTH [15]): phyto
